Results: PubChem BioAssay (NCI)
Where “and” joins values, the source holds several entries; their conditions need not be identical. Identical values can stand only once.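 Assay format: 96-well plates, 48-hour exposure. At the GI50, growth is halved. The concentration for full growth arrest is given as TGI.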

How the values were obtained:
Experiment in all cases: NCI tumour cell line growth inhibition, 48 h
SR leukemia = test system: SR leukemia
A498 renal = test system: A498 renal
MCF7 breast = test system: MCF7 breast
NCI-H23 lung = test system: NCI-H23 lung
SK-MEL-28 melanoma = test system: SK-MEL-28 melanoma
SF-539 CNS = test system: SF-539 CNS
P388 leukemia = test system: P388 leukemia
HT29 colon = test system: HT29 colon
OVCAR-5 ovarian = test system: OVCAR-5 ovarian
UO-31 renal = test system: UO-31 renal
ACHN renal = test system: ACHN renal
786-0 renal = test system: 786-0 renal
OVCAR-8 ovarian = test system: OVCAR-8 ovarian
SN12K1 renal = test system: SN12K1 renal
HCC-2998 colon = test system: HCC-2998 colon
NCI-H460 lung = test system: NCI-H460 lung
CAKI-1 renal = test system: CAKI-1 renal
DU-145 prostate = test system: DU-145 prostate
P388/ADR leukemia = test system: P388/ADR leukemia
A549 NSCLC = test system: A549 NSCLC
TK-10 renal = test system: TK-10 renal
DMS 114 small cell lung = test system: DMS 114 small cell lung
BT-549 breast = test system: BT-549 breast
SNB-19 CNS = test system: SNB-19 CNS
DMS 273 small cell lung = test system: DMS 273 small cell lung
MOLT-4 leukemia = test system: MOLT-4 leukemia
K-562 leukemia = test system: K-562 leukemia

With `O=c1[nH]c(=O)n(C2CC(O)C(CO)O2)cc1F` (centres undefined) the TGI (SR leukemia) was > 100 µM and 750 µM, the TGI (A498 renal) was > 100 µM and 84.7 µM and the TGI (MCF7 breast) was > 100 µM and 1940 µM and > 2500 µM. The TGI (NCI-H23 lung) was > 100 µM and 239 µM, the TGI (SK-MEL-28 melanoma) was > 100 µM and 1730 µM and > 2500 µM and the GI50 (SF-539 CNS) was over 79.3 µM. The TGI (P388 leukemia) was 179 µM, the TGI (HT29 colon) was > 100 µM and 2400 µM and > 2500 µM and the TGI (OVCAR-5 ovarian) was > 100 µM and 2330 µM and > 2500 µM. For the same compound, the TGI (UO-31 renal) was > 100 µM and 130 µM, the GI50 (ACHN renal) was over 92.6 µM and the TGI (ACHN renal) was > 100 µM and 1670 µM. For the same compound, the TGI (786-0 renal) was > 100 µM and 1790 µM and > 2500 µM, the TGI (OVCAR-8 ovarian) was > 100 µM and 2320 µM and > 2500 µM and the TGI (SN12K1 renal) was 1250 µM. The GI50 (HCC-2998 colon) was 33.6 µM, the GI50 (NCI-H460 lung) was over 65.3 µM and the TGI (NCI-H460 lung) was > 100 µM and 526 µM. The TGI (CAKI-1 renal) was > 100 µM and 1100 µM and > 2500 µM, the TGI (DU-145 prostate) was > 100 µM and > 1570 µM and 1820 µM and the TGI (P388/ADR leukemia) was 74.9 µM. The TGI (A549 NSCLC) was > 100 µM and 1910 µM and > 2500 µM, the TGI (TK-10 renal) was > 100 µM and 1650 µM and > 2500 µM and the TGI (DMS 114 small cell lung) was 808 µM. The TGI (BT-549 breast) was > 100 µM and 1030 µM and > 869 µM, the TGI (SNB-19 CNS) was > 100 µM and 1750 µM and > 2500 µM and the TGI (DMS 273 small cell lung) was 415 µM. The TGI (MOLT-4 leukemia) was > 100 µM and 1930 µM and > 2500 µM and the TGI (K-562 leukemia) was > 100 µM and 1080 µM.
